Measured values taken from ChEMBL document CHEMBL1201862, “PubChem BioAssay data set” (2004).
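Assay format: 96-well plates, 48-hour exposure. Here, GI50 denotes the concentration required for 50% inhibition of growth.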 Activity calls are given as the source filed them. Rule as the data show it: active = GI50 up to about 1.1 µM and inactive = higher.

Legend:
Test in all cases: inhibition of tumour cell growth, NCI panel, 48 h
ACHN = tested on: ACHN
CCRF-CEM = tested on: CCRF-CEM
COLO 205 = tested on: COLO 205
DU-145 = tested on: DU-145
EKVX = tested on: EKVX
HCT-15 = tested on: HCT-15
HL-60 = tested on: HL-60
IGROV-1 = tested on: IGROV-1
KM12 = tested on: KM12
LOX IMVI = tested on: LOX IMVI
MDA-N = tested on: MDA-N
NCI-H226 = tested on: NCI-H226
NCI-H460 = tested on: NCI-H460
NCI-H522 = tested on: NCI-H522
SF-268 = tested on: SF-268
SK-MEL-28 = tested on: SK-MEL-28
SK-OV-3 = tested on: SK-OV-3
SN12C = tested on: SN12C
TK-10 = tested on: TK-10
U-251 = tested on: U-251

SMILES	GI50 (ACHN)	GI50 (CCRF-CEM)	GI50 (COLO 205)	GI50 (DU-145)	GI50 (EKVX)	GI50 (HCT-15)	GI50 (HL-60)	GI50 (IGROV-1)	GI50 (KM12)	GI50 (LOX IMVI)	GI50 (MDA-N)	GI50 (NCI-H226)	GI50 (NCI-H460)	GI50 (NCI-H522)	GI50 (SF-268)	GI50 (SK-MEL-28)	GI50 (SK-OV-3)	GI50 (SN12C)	GI50 (TK-10)	GI50 (U-251)
N#CC12C(=O)N=C(N)C1(C#N)C(c1ccco1)NC1=C2CCCC1 (stereo not given)	> 100 µM (inactive)	> 100 µM (inactive)	> 100 µM (inactive)	> 100 µM (inactive)	> 100 µM (inactive)	> 100 µM	> 100 µM (inactive)	> 100 µM (inactive)	> 100 µM (inactive)	> 100 µM (inactive)	> 100 µM (inactive)	> 100 µM (inactive)	> 100 µM (inactive)	> 100 µM (inactive)	> 100 µM (inactive)	> 100 µM (inactive)	> 100 µM (inactive)	> 100 µM (inactive)	> 100 µM (inactive)	> 100 µM (inactive)
Cc1ccc2nc(CN3CCCC(O)C3)cc(=O)n2c1 (stereo not given)	> 100 µM (inactive)	> 100 µM (inactive)	> 100 µM (inactive)	> 100 µM (inactive)	> 100 µM (inactive)	> 100 µM	> 100 µM (inactive)	> 100 µM (inactive)	> 100 µM (inactive)	> 100 µM (inactive)	> 100 µM (inactive)	> 100 µM (inactive)	> 100 µM (inactive)	> 100 µM (inactive)	> 100 µM (inactive)	> 100 µM (inactive)	> 100 µM (inactive)	> 100 µM (inactive)	> 100 µM (inactive)	> 100 µM (inactive)
COC(=O)C1=C(C=O)C2C=CC1C2 (stereo not given)	> 67.9 µM (inactive)	25.1 µM (inactive)	46.3 µM (inactive)	> 100 µM (inactive)	98.4 µM (inactive)	42.1 µM	21.3 µM (inactive)	> 100 µM (inactive)	> 100 µM (inactive)	> 60.5 µM (inactive)	> 100 µM (inactive)	> 100 µM (inactive)	> 100 µM (inactive)	44.5 µM (inactive)	> 83.4 µM (inactive)	> 64.3 µM (inactive)	> 68.7 µM (inactive)	> 71.8 µM (inactive)	53.8 µM (inactive)	> 88.5 µM (inactive)
COc1ccc2c(c1)-c1nc(=O)n(CCCN(C)C)c3ccc([N+](=O)[O-])c(c13)N2	0.485 µM (active)	0.117 µM (active)	0.752 µM (active)	0.776 µM (active)	0.711 µM (active)	0.897 µM	1.86 µM (inactive)	0.413 µM (active)	0.873 µM (active)	0.838 µM (active)	3.22 µM (inactive)	3.81 µM (inactive)	0.435 µM (active)	0.368 µM (active)	0.789 µM (active)	1.19 µM (inactive)	1.29 µM (inactive)	0.752 µM (active)	1.09 µM (active)	1.43 µM (inactive)
CC1=CC(=O)[C@@H](O)[C@]2(C)[C@H]3[C@@]4(O)OC[C@]35[C@H]([C@@H](C)[C@H]4O)[C@@H](OC(=O)C(C)(C)CO)C(=O)O[C@@H]5C[C@@H]12	0.208 µM (active)	0.0362 µM (active)	1.73 µM (inactive)	0.305 µM (active)	0.741 µM (active)	0.292 µM	0.0243 µM (active)	< 0.0165 µM (active)	< 0.0271 µM (active)	< 0.012 µM (active)	0.0769 µM (active)	< 0.0216 µM (active)	0.0568 µM (active)	< 0.0151 µM (active)	< 0.0379 µM (active)	0.0478 µM (active)	4.31 µM (inactive)	0.191 µM (active)	0.575 µM (active)	0.0281 µM (active)
O=C1CCC[C@@H]2NC[C@@H](c3ccc4c(c3)OCO4)[C@H]12	> 25 µM (inactive)	> 25 µM (inactive)	> 25 µM (inactive)	> 25 µM (inactive)	> 25 µM (inactive)	> 25 µM	> 25 µM (inactive)	> 25 µM (inactive)	> 25 µM (inactive)	> 25 µM (inactive)	> 25 µM (inactive)	> 25 µM (inactive)	> 25 µM (inactive)	> 25 µM (inactive)	> 25 µM (inactive)	> 25 µM (inactive)	> 25 µM (inactive)	> 25 µM (inactive)	> 25 µM (inactive)	> 25 µM (inactive)
O=C1c2ccccc2C(=O)N1CCCC(=O)n1cc(F)c(=O)[nH]c1=O	15.8 µM (inactive)	18.6 µM (inactive)	6.62 µM (inactive)	10.1 µM (inactive)	> 58.3 µM (inactive)	8.41 µM	7.78 µM (inactive)	3.4 µM (inactive)	6.73 µM (inactive)	6.18 µM (inactive)	16.1 µM (inactive)	38.5 µM (inactive)	2.68 µM (inactive)	37.4 µM (inactive)	69.2 µM (inactive)	> 100 µM (inactive)	> 91 µM (inactive)	> 26.1 µM (inactive)	> 41.2 µM (inactive)	> 100 µM (inactive)
COC(=O)c1cc(OC)c(OC)c(OC)c1-c1cc2c(cc1C=O)OCO2	> 10 µM (inactive)	> 10 µM (inactive)	> 10 µM (inactive)	> 10 µM (inactive)	> 10 µM (inactive)	> 10 µM	> 10 µM (inactive)	> 10 µM (inactive)	> 10 µM (inactive)	> 10 µM (inactive)	> 10 µM (inactive)	> 10 µM (inactive)	> 10 µM (inactive)	> 10 µM (inactive)	> 10 µM (inactive)	> 10 µM (inactive)	> 10 µM (inactive)	> 10 µM (inactive)	> 10 µM (inactive)	> 10 µM (inactive)
CO[C@H]1[C@@H](O)[C@H](O[C@@H]2C[C@H]3CC[C@@H]4[C@H](CC[C@]5(C)[C@@H](C6=CC(=O)OC6)CC[C@]45O)[C@@]3(C)[C@H](OC(C)=O)C2)O[C@@H](C)[C@H]1O	0.393 µM (active)	0.65 µM (active)	2.06 µM (inactive)	0.726 µM (active)	1.29 µM (inactive)	1.92 µM	0.402 µM (active)	1.46 µM (inactive)	5.83 µM (inactive)	1.52 µM (inactive)	1.64 µM (inactive)	2.96 µM (inactive)	0.465 µM (active)	0.574 µM (active)	0.646 µM (active)	4.34 µM (inactive)	2.78 µM (inactive)	0.552 µM (active)	1.17 µM (inactive)	2.54 µM (inactive)
Cc1cc(S(=O)(=O)/N=C(\NN)NNc2cccc(C(F)(F)F)n2)c(S)cc1Cl	21.4 µM (inactive)	23.3 µM (inactive)	19.5 µM (inactive)	18.5 µM (inactive)	22.6 µM (inactive)	18.8 µM	27.4 µM (inactive)	> 10 µM (inactive)	16.9 µM (inactive)	18.9 µM (inactive)	14.8 µM (inactive)	18.3 µM (inactive)	26.9 µM (inactive)	24.4 µM (inactive)	21.4 µM (inactive)	15 µM (inactive)	25.4 µM (inactive)	30.6 µM (inactive)	26.2 µM (inactive)	16.8 µM (inactive)
Cc1c(O)ccc2c(O)c(NC(=O)c3ccc4c(c3)CCC(C)(C)O4)c(=O)oc12 [CYCLONOVOBIOCIC ACID]	> 100 µM (inactive)	> 100 µM (inactive)	> 100 µM (inactive)	> 100 µM (inactive)	> 100 µM (inactive)	> 100 µM	> 100 µM (inactive)	> 100 µM (inactive)	> 100 µM (inactive)	> 100 µM (inactive)	> 100 µM (inactive)	> 100 µM (inactive)	> 100 µM (inactive)	> 100 µM (inactive)	> 100 µM (inactive)	> 100 µM (inactive)	> 100 µM (inactive)	> 100 µM (inactive)	> 100 µM (inactive)	> 100 µM (inactive)
NS(=O)(=O)c1cc(Cl)c(NC(=S)NC(=O)Nc2ccc(Cl)c(Cl)c2)c(Cl)c1	34.1 µM (inactive)	6.97 µM (inactive)	18 µM (inactive)	67 µM (inactive)	28.4 µM (inactive)	40.9 µM	21.8 µM (inactive)	81.1 µM (inactive)	34.7 µM (inactive)	40.3 µM (inactive)	33.6 µM (inactive)	30.8 µM (inactive)	30.2 µM (inactive)	26.1 µM (inactive)	56.8 µM (inactive)	84.3 µM (inactive)	77.4 µM (inactive)	36.8 µM (inactive)	47.4 µM (inactive)	37.2 µM (inactive)
COc1ccccc1C1C2=C(COC2=O)OC(C)(C)Oc2cc3c(cc21)OCO3 (stereo not given)	7.91 µM (inactive)	4.06 µM (inactive)	1.04 µM (active)	3.57 µM (inactive)	3.56 µM (inactive)	3.23 µM	1.35 µM (inactive)	5.35 µM (inactive)	1.11 µM (active)	5.16 µM (inactive)	0.65 µM (active)	10.3 µM (inactive)	3.6 µM (inactive)	1.99 µM (inactive)	7.4 µM (inactive)	7.28 µM (inactive)	4 µM (inactive)	5.48 µM (inactive)	1.69 µM (inactive)	3.85 µM (inactive)
